According to patent US11000512B2, “Use of DDX3 inhibitors as antiproliferative agents” (AZIENDA OSPEDALIERA UNIVERSITARIA SENESE, priority 2016, dated 2021):

Key:
[1] = Parallel Artificial Membrane Permeability Assay (PAMPA), GI; assay type: in vitro ADME; settings: GI (intestinal) PAMPA, value in brackets
Description: Parallel Artificial Membrane Permeability Assay (PAMPA). Donor solution (0.5 mM) was prepared by diluting 1 mM dimethylsulfoxide (DMSO) compound stock solution using phosphate buffer (pH 7.4, 0.025 M). Filters were coated with 5 μL of a 1% (w/v) dodecane solution of phosphatidylcholine prepared from CHCl3 solution 10% w/v, for intestinal permeability. Donor solution (150 μL) was added to each well of the filter plate. To each well of the acceptor plate were added 300 μL of solution (50% DMSO in phosphate buffer). All compounds were tested in three different plates on different days. The sandwich was incubated for 5 h at room temperature under gentle shaking. After the incubation time, the plates were separated, and samples were taken from both receiver and donor sides and analyzed using LC with UV detection at 280 nm.
LC analysis were performed with a Varian Prostar HPLC system (Varian Analytical Instruments, USA) equipped with a binary pump with a manual injection valve and model Prostar 325 UV-VIS Detector. Chromatographic separations were conducted using a Polaris C18-A column (150-4.6 mm, 5 μm particle size) at a flow rate of 0.8 mL min^−1 with a mobile phase composed of 60% ACN/40% H2O.
Permeability (Papp) for PAMPA was calculated according to the following equation, obtained from Wohnsland and Faller and Sugano et al. equation with some modification in order to obtain permeability values in cm s^−1,
where VA is the volume in the acceptor well, VD is the volume in the donor well (cm^3), A is the “effective area” of the membrane (cm^2), t is the incubation time (s) and r the ratio between drug concentration in the acceptor and equilibrium concentration of the drug in the total volume (VD+VA). Drug concentration is estimated by using the peak area integration.
Membrane retentions (%) were calculated according to the following equation: […]
where r is the ratio between drug concentration in the acceptor and equilibrium concentration, D, A, and Eq represented drug concentration in the donor, acceptor and equilibrium solution, respectively.

[2] = tested on: Human Prostate cell line derived from brain metastasis (DU-145); test: Cytotoxicity test / growth inhibition, DU-145; assay type: cell-based; settings: DU-145, 48 hours, cell counting
Description: (§1) Cells were purchased from American Type Culture Collection (ATCC, Manassas, Va., USA). The LNCaP (ATCC® CRL-1740™), A549 (ATCC® CCL-185™), MDA-MB-231 (ATCC® CRM-HTB-26™), 22Rv1 (ATCC® CRL-2505™), HCT-116 (ATCC® CCL-247™) and PC3 (ATCC® CRL-1435™) cells were maintained in Roswell Park Memorial Institute 1640 medium (RPMI; Euroclone, ECB9006L) supplemented with 10% fetal bovine serum (Euroclone; ECS0180L), 2 mM L-glutamine, 100 units/mL penicillin and […] streptomycin at 37° C. in an atmosphere of 5% CO2/air. DU145 (ATCC® HTB-81™), and DAOY (ATCC® HTB-186™) cells were maintained in Eagle's minimal essential medium (EMEM; Euro-clone, ECM0445L) supplemented with 10% fetal bovine serum (Euroclone; ECS0180L), 2 mM L-glutamine, 100 units/ml penicillin and […] streptomycin at 37° C. in an atmosphere of 5% CO2/air. SH-SY5Y (ATCC® CRL-2266™), DBRTG (ATCC® CRL-2020™), HeLa (ATCC® CCL-2™), HN6 cells (kindly provided by Dr Silvio Gutkind, UCSD Medical Center, Moores Cancer Center USA, Chen J. J et al, Oncotarget 2013, 4, 206-217)), U2OS (ATCC® HTB-96™), RD18 cells (kindly provided by Dr P. Boccuni Memorial Sloan-Kettering Cancer Center, New York, USA Vella S. et al. Clin Epigenetics. 2015 6; 7-82), cells were maintained in Dulbecco's modified Eagle's medium (DMEM; Euroclone, ECB7501L) supplemented with 10% fetal bovine serum (Euroclone; ECS0180L), 2 mM L-glutamine, 100 units/ml penicillin and 100 mg/mL streptomycin at 37° C. in an atmosphere of 5% CO2/air.
(§2) Cell lines were seeded at appropriate densities in 2 mL growth medium in 6-wells culture plates 24 hours before the treatment with the inhibitor compounds. After 24 h the culture medium was removed and fresh medium containing increasing concentrations of chemical compounds was added to cells. The fixed final concentrations were: 0.1 μM, 1 μM, 10 μM, 100 μM. DMSO was the vehicle used for dilution of the compounds and its final concentration on cells was less than 0.2%. Medium-only containing wells were included as controls. Cells were incubated 48 hours with drugs and, then, cell viability was evaluated.
(§3) Cells were detached from each well of the 6-wells plates with 300 μL of Trypsin and suspended in culture medium to a final volume of 1 mL. Cell viability was then assessed through cell counting. Cells were diluted in 1:50 ratio of an isotonic buffered diluent, Isoton (Backman Coulter), following the manufacturer's instructions, and counted using an automated cell counter (Z2 series Coulter Counter, Beckman Coulter). Each cell count was performed in three replicates. The values corresponding to the relative survival of cells in presence of each chemical compound at single concentrations were normalized to the untreated controls. […]

[3] = tested on: Human Prostate cancer cell line (PC3); test: Cytotoxicity test / growth inhibition, PC3; assay type: cell-based; settings: PC3, 48 hours, cell counting
Description: as §1, with “2015 6; 7-82), cells were maintained in Dulbecco's modified Eagle's medium (DMEM; Euroclone, ECB7501L) supplemented with 10% fetal bovine serum (Euroclone; ECS0180L), 2 mM L-glutamine, 100 units/ml penicillin and 100 mg/mL streptomycin at 37° C. in an atmosphere of 5% CO2/air.” left out
(§4) Cell lines were seeded at appropriate densities in 2 mL growth medium in 6-wells culture plates 24 hours before the treatment with the inhibitor compounds. […] Cells were incubated 48 hours with drugs and, then, cell viability was evaluated.
(§5) Cells were detached from each well of the 6-wells plates with 300 μL of Trypsin and suspended in culture medium to a final volume of 1 mL. Cell viability was then assessed through cell counting. Cells were diluted in 1:50 ratio of an isotonic buffered diluent, Isoton (Backman Coulter), following the manufacturer's instructions, and counted using an automated cell counter (Z2 series Coulter Counter, Beckman Coulter). […]

[4] = tested on: Human breast adenocarcinoma cell line (MDA-MB-231); test: Cytotoxicity test / growth inhibition, MDA-MB-231; assay type: cell-based; settings: MDA-MB-231, 48 hours, cell counting
Description: as §1, §2
(§6) Cells were detached from each well of the 6-wells plates with 300 μL of Trypsin and suspended in culture medium to a final volume of 1 mL. Cell viability was then assessed through cell counting. Cells were diluted in 1:50 ratio of an isotonic buffered diluent, Isoton (Backman Coulter), following the manufacturer's instructions, and counted using an automated cell counter (Z2 series Coulter Counter, Beckman Coulter). Each cell count was performed in three replicates. The values corresponding to the relative survival of cells in presence of each chemical compound at single concentrations were normalized to the untreated controls. Then, the half maximal inhibitory concentration (IC50) value, which represent the drug concentration that is required to induce a 50% growth inhibition in vitro, was calculated with GraphPad Prism 6.0 software using the best fitting sigmoid curve.

[5] = tested on: Human cervical carcinoma cell line (HeLa); test: Cytotoxicity test / growth inhibition, HeLa; assay type: cell-based; settings: 48 hours, cell counting
Description: as §1, with “2015 6; 7-82), cells were maintained in Dulbecco's modified Eagle's medium (DMEM; Euroclone, ECB7501L) supplemented with 10% fetal bovine serum (Euroclone; ECS0180L), 2 mM L-glutamine, 100 units/ml penicillin and 100 mg/mL streptomycin at 37° C. in an atmosphere of 5% CO2/air.” left out
as §4, §5

[6] = tested on: Human adenocarcinomic alveolar basal epithelial cell line (A549); test: Cytotoxicity test / growth inhibition, A549; assay type: cell-based; settings: A549, 48 hours, cell counting
Description: as §1, §2, §6

[7] = tested on: Human colorectal carcinoma cell line (HCT116); test: Cytotoxicity test / growth inhibition, HCT116; assay type: cell-based; settings: HCT-116, HCT116, 48 hours, cell counting
Description: as §1, with “2015 6; 7-82), cells were maintained in Dulbecco's modified Eagle's medium (DMEM; Euroclone, ECB7501L) supplemented with 10% fetal bovine serum (Euroclone; ECS0180L), 2 mM L-glutamine, 100 units/ml penicillin and 100 mg/mL streptomycin at 37° C. in an atmosphere of 5% CO2/air.” left out
as §4, §5

[8] = tested on: Human osteosarcoma cell line (U2OS); test: Cytotoxicity test / growth inhibition, U2OS; assay type: cell-based; settings: 48 hours, cell counting
Description: as §1, §2, §6

[9] = tested on: Human head and neck squamous carcinoma cell line (HN6); test: Cytotoxicity test / growth inhibition, HN6; assay type: cell-based; settings: HN6, 48 hours, cell counting
Description: as §1, §2, §6

[10] = tested on: Human muscle rhabdomyosarcoma cell line (RD18); test: Cytotoxicity test / growth inhibition, RD18; assay type: cell-based; settings: RD18, 48 hours, cell counting
Description: (§7) Cells were purchased from American Type Culture Collection (ATCC, Manassas, Va., USA). The LNCaP (ATCC® CRL-1740™), A549 (ATCC® CCL-185™), MDA-MB-231 (ATCC® CRM-HTB-26™), 22Rv1 (ATCC® CRL-2505™), HCT-116 (ATCC® CCL-247™) and PC3 (ATCC® CRL-1435™) cells were maintained in Roswell Park Memorial Institute 1640 medium (RPMI; Euroclone, ECB9006L) supplemented with 10% fetal bovine serum (Euroclone; ECS0180L), 2 mM L-glutamine, 100 units/mL penicillin and […] streptomycin at 37° C. in an atmosphere of 5% CO2/air. […]
as §4, §5

[11] = tested on: Human brain glioblastoma cell line (DBTRG); test: Cytotoxicity test / growth inhibition, DBTRG; assay type: cell-based; settings: 48 hours, cell counting
Description: as §7, §4, §5

[12] = tested on: Human medulloblastoma cell line (DAOY); test: Cytotoxicity test / growth inhibition, DAOY; assay type: cell-based; settings: 48 hours, cell counting
Description: as §7, §4, §5

[13] = Microsomal Stability Assay (HLM); assay type: in vitro ADME; settings: human liver microsomes, 37° C., 60 min, NADPH-generating system; percentage of not metabolized compound
Excerpt: For the quantification was used an LC-MS system consisted of a Varian apparatus (Varian Inc) including a vacuum solvent degassing unit, two pumps (212-LC), a Triple Quadrupole MSD (Mod. 320-LC) mass spectrometer with ES interface and Varian MS Workstation System Control Vers. 6.9 software. Chromatographic separation was obtained using a Pursuit C18 column (50×2.0 mm) (Varian) with 3 μm particle size and gradient elution: eluent A being ACN and eluent B consisting of water. […] The flow rate was 0.2 mL min^−1 and injection volume was 5 μL. The instrument operated in positive mode and parameters were: detector 1850 V, drying gas pressure 25.0 psi, desolvation temperature 300.0° C., nebulizing gas 40.0 psi, needle 5000 V and shield 600 V. Nitrogen was used as nebulizer gas and drying gas. Collision induced dissociation was performed using Argon as the collision gas at a pressure of 1.8 mTorr in the collision cell. Microsomal Stability Assay. […] The reaction was stopped by cooling on ice and adding 1.0 mL of acetonitrile. The reaction mixtures were then centrifuged, and the parent drug and metabolites were subsequently determined by LC-UV-MS. Chromatographic analysis was performed with an Agilent 1100 LC/MSD VL system (G1946C) (Agilent Technologies, Palo Alto, Calif.) constituted by a vacuum solvent degassing unit, a binary high-pressure gradient pump, an 1100 series UV detector, and an 1100 MSD model VL benchtop mass spectrometer.
Chromatographic separation was obtained using a Varian Polaris C18-A column (150-4.6 mm, 5 μm particle size) and gradient elution: eluent A being ACN and eluent B consisting of water. […] The flow rate was 0.8 mL min^−1 and injection volume was 20 μL.
The Agilent 1100 series mass spectra detection (MSD) single-quadrupole instrument was equipped with the orthogonal spray API-ES (Agilent Technologies, Palo Alto, Calif.). Nitrogen was used as nebulizing and drying gas. The pressure of the nebulizing gas, the flow of the drying gas, the capillary voltage, the fragmentor voltage, and the vaporization temperature were set at 40 psi, 9 L/min, 3000 V, 70 V, and 350° C., respectively. UV detection was monitored at 280 nm. The LC-ESI-MS determination was performed by operating the MSD in the positive ion mode. Spectra were acquired over the scan range m/z 100-1500 using a step size of 0.1 u. The percentage of not metabolized compound was calculated by comparison with reference solutions.

[14] = tested on: Human Prostate Adenocarcinoma cell line (LNCaP); test: Cytotoxicity test / growth inhibition, LNCaP; assay type: cell-based; settings: 48 hours, cell counting
Description: as §7, §4, §5

[15] = tested on: Human Prostate carcinoma epithelial cell line (22Rv1); test: Cytotoxicity test / growth inhibition, 22Rv1; assay type: cell-based; settings: 22Rv1, 48 hours, cell counting
Description: as §7, §4, §5

[16] = tested on: Human Neuroblastoma cell line (SH-SY5Y); test: Cytotoxicity test / growth inhibition, SH-SY5Y; assay type: cell-based; settings: 48 hours, cell counting
Description: as §7, §4, §5

[17] = tested on: Human Glioblastoma cell line (U87); test: Cytotoxicity test / growth inhibition, U87; assay type: cell-based; settings: U87, 48 hours, cell counting
Description: as §2, §3

| PAMPA GI (RM %) membrane retention [1] [%] | Sability % [13] [%] | Compound | IC50 [2] [µM] | IC50 [3] [µM] | IC50 [4] [µM] | IC50 [5] [µM] | IC50 [6] [µM] | IC50 [7] [µM] | IC50 [8] [µM] | IC50 [9] [µM] | IC50 [10] [µM] | IC50 [11] [µM] | IC50 [12] [µM] | IC50 [14] [µM] | IC50 [15] [µM] | IC50 [16] [µM] | IC50 [17] [µM] |
| --- | --- | --- | --- | --- | --- | --- | --- | --- | --- | --- | --- | --- | --- | --- | --- | --- | --- |
| 23.9 | – | CCCCc1cn(-c2ccc(NC(=O)Nc3ccccc3C(F)(F)F)cc2)nn1 [Compound 22a, 1-(4-(4-butyl-1H-1,2,3-triazol-1-yl)phenyl)-3-(2-(trifluoromethyl)phenyl)urea] | 0.1 | 25.6 | 1.4 | 6.29 | 1.4 | 3.9 | 4.2 | 0.8 | 3.2 | 5.8 | 3.3 | – | – | – | – |
| – | 99 | CCCCc1cn(-c2cccc(S(=O)(=O)Nc3ccccc3C(F)(F)F)c2)nn1 [Compound 64d, 3-(4-butyl-1H-1,2,3-triazol-1-yl)-N-(2-(trifluoromethyl)phenyl)benzenesulfonamide] | 3 | – | 15.7 | 51.7 | 21.3 | – | – | – | – | – | – | 16.7 | 14 | 18.8 | 87 |
